# Laboratory results reported in patent US12466824B2, “Stable polymorphic form of 6-fluoro-9-methyl-9H-β-carboline and uses thereof” (AudioCure Pharma GmbH, priority 2019, dated 2025).
# “Also recorded” adds a separate entry of the source.
# Tests used:
# [1] = Polymorph stability in poloxamer-based formulation (XRPD); format: physicochemical; settings: for conversion of polymorphic form A into polymorphic form B: XRPD
# Procedure: In a series of experiments, the polymorph stability has been analyzed. Micronized (≤20 μm) polymorphs A and B were added to phosphate buffer containing a non-ionic tenside as vehicle formulation. […]
# 2 mL of poloxamer based formulation with 12 mg/ml 6-FMC were cooled to 4° C., vortexed and transferred into a 2 mL Eppendorf vial. The cooled vial was centrifuged for 2 min with a table-centrifuge, the supernatant polymer solution was removed with a pipette and discarded. The remaining 6-FMC was resuspended and vortexed with 1.5 mL of ice cold milli-Q water and centrifuged down as described before. The supernatant water was again removed with a pipette and the washing procedure is repeated 3 times (in total 4 washings). Note: Keep the solution cool to facilitate the centrifugation process. After the last washing, the remaining white 6-FMC is cooled with liquid nitrogen and freeze dried overnight at 100 Pa at room temperature.
# After 30 hours in formulation 60% of polymorphic form A is converted into polymorphic form B (see FIG. 10). Keeping the formulation for 48 hours or longer results in 100% conversion of polymorphic form A into polymorphic form B as shown in FIG. 11.
# [2] = tested on: noise induced hearing loss model (NIHL) in guinea pigs; assay: Noise induced hearing loss (NIHL) guinea pig model, intratympanic application, PTS by BERA; format: in vivo; settings: single intratympanic 0.12 mg; for level of improvement of the PTS: across investigated frequencies (FIG. 13 / FIG. 14)
# Procedure: The effect of an intratympanic administration of polymorph A of 6-FMC (0.12 mg) prepared freshly (less than 24 h before use) on the Permanent Threshold Shift has been investigated in guinea pigs (FIG. 13). The Permanent Threshold Shift (PTS) is defined as the difference between the post-traumatic hearing threshold measured on day 14 and the baseline hearing threshold measured on day −3.
# Furthermore, the effect of an intratympanic administration of polymorph B of 6-FMC (0.12 mg) prepared at least 48 h before use, on the PTS in guinea pigs is presented in FIG. 14.
# General procedures: All in vivo proof of principle studies were performed in the well-established guinea pig model of NIHL. […] Hearing function was assessed by brain evoked response audiometry (BERA).
# Methods: Adult guinea pigs received an intratympanic (i.t.) injection of either 6-FMC formulated in a thermosensitive hydrogel or hydrogel alone. All procedures were performed under anesthesia. BERA was used to measure auditory brainstem responses (ABRs) on day −3 and day 14. The auditory stimuli were sinus tones (10 ms duration at 4, 8, 16 kHz) at 5 dB steps from 0-90 dB. These measurements were used to calculate the PTS. The acoustic trauma was performed on day 0 and consisted of a single continuous band (quarter-octave centered at 8 kHz) at 118 dB SPL for 30 min. Animals were treated 1 h after the end of the acoustic exposure. The round window was visualized under a surgical microscope via a small hole drilled in the bone of the bulla of the left ear. 10 μL of gel containing either 6-FMC or vehicle was injected using a Hamilton syringe and a motorized pump onto the round window membrane (RWM) before the hole was closed with dental cement.
# Formulation preparation: a non-ionic tenside based solution is prepared in advance, by dissolving an appropriate amount of the non-ionic tenside in water or in PBS buffer and allowing for an overnight mixing under refrigerated conditions. Once the non-ionic tenside is completely dissolved, osmolality and pH are adjusted if desired. Next the solution is filtered through a 500 μm sieve to remove undissolved gel particles. This concludes compounding of the vehicle. API (Active Pharmaceutical Ingredient) containing formulation is prepared by addition of micronized 6-FMC (≤50 μm) at a concentration of 12 mg/mL. For experiments presented in FIG. 13, 6-FMC formulation was applied directly after being prepared. For experiments in FIG. 14, 6-FMC formulation was prepared at least 48 h prior to animal experiments.
# [3] = Polymorph stability under manufacturing processes; format: physicochemical; settings: drying, milling, micronization, wet granulation, spray-drying, compaction
# Source text: Various dissolution/crystallization conditions have been applied to try to convert polymorph B into polymorph A. As mentioned above, only with sophisticated procedures polymorph B could be fully converted into polymorph A (Example 4). Polymorphic forms of a drug substance can undergo phase conversion when exposed to a range of manufacturing processes, such as drying, milling, micronization, wet granulation, spray-drying, and compaction. Exposure to environmental conditions such as humidity and temperature can also induce polymorph conversion. Therefore, polymorph A is unstable and thus not suited for pharmaceutical processes, while polymorph B was stable under all these conditions including drying, milling, micronization, wet granulation, spray-drying, and compaction.
# [4] = Polymorph conversion under various thermal conditions (polymorph B to polymorph A), XRPD; format: physicochemical
# Procedure: 3-1: Polymorph B of 6-FMC was dissolved in n-heptane, the suspension was heated (100° C.) for 1:45 h under stirring. Then the suspension was cooled and stirred at room temperature for 15 hrs. The precipitate was filtered, washed with n-heptane and dried by air.
# 3-2: Polymorph B of 6-FMC was diluted in toluene and heated up to 95° C. and cooled down to room temperature. The precipitate was filtered, washed with toluene and dried in an air stream.
# 3-3: A suspension of polymorph B of 6-FMC was diluted in n-heptane and heated up to 110° C. It was kept for 5 hrs 18 min in a flask under reflux conditions, followed by gentle cooling down to room temperature, stirred for 16 hrs. The precipitate was filtered, washed with heptane and dried by air.
# 3-4: A suspension of polymorph B of 6-FMC was diluted in n-heptane and heated up to 108° C. until the substance was completely diluted. Seed crystals of polymorph A were added to the solution which was gentle cooled down to room temperature. The precipitate was filtered, washed with n-heptane and dried by air.
# [5] = Melting/cooling and vacuum sublimation of polymorph powders; format: physicochemical
# Procedure: The polymorph B sample melted at ˜123° C. […] (FIG. 6B).
# [6] = Polymorph conversion using supercritical CO2; format: physicochemical; settings: 60° C., 350 bar (35 MPa), 2.5 h
# Procedure: Extraction/polymorph conversion with supercritical CO2 was performed with 500 mg of crude, off-white polymorph B in an ExtrateX Rapid Expansion of a Supercritical Solution (REES) system. The extraction vessel was heated to 60° C. with a pressure of 350 bar. The nozzle was a stainless-steel capillary 5 cm length, inner diameter 0.25 mm at 70° C. The expansion vessel was heated to 40° C. at 1-5 Mpa. Equilibration time: 2.5 h; spraying-time: 15 min.
# The cylinder of the apparatus in which the supercritical CO2 had been introduced was loaded with polymorph B (FIG. 9A) and heated to 60° C. and a pressure of 35 MPa. The time amounted to 2.5 hrs during which the API dissolved completely in the supercritical CO2.
# [7] = day 14 vs day -3, listed as polymorphic form A
# [8] = day 14 vs day -3, listed as polymorphic form B
SMILES,"conversion of polymorphic form A into polymorphic form B ([1]; 30 hours in poloxamer based formulation (phosphate buffer, non-ionic tenside), micronized) [%]","conversion of polymorphic form A into polymorphic form B ([1]; 48 hours in poloxamer based formulation, listed as polymorphic A) [%]",level of improvement of the PTS [2],recovery of the PTS compared to vehicle treated animals ([2]; at 16 kHz),"average PTS (threshold shift) in treated animals [2, 7] [dB]","average PTS reduction versus vehicle-treated controls [2, 7] [dB]",stability under manufacturing processes [3],"polymorph conversion in formulation ([1]; initially introduced polymorph B, after 30 h in formulation)","polymorph conversion in formulation ([1]; sample initially made from polymorph B, regular intervals over several months)",PTS at some frequencies ([2]; 4 and 8 kHz (FIG. 14)),level of improvement of the PTS ([2]; listed as polymorphic form B),"average PTS (threshold shift) in treated animals [2, 8] [dB]","average PTS reduction versus vehicle-treated controls [2, 8] [dB]","conversion of polymorph B into form A (XRPD) ([4]; 3-1: n-heptane, 100° C. for 1:45 h, then room temperature 15 hrs)","conversion of polymorph B into form A (XRPD) ([4]; 3-2: toluene, heated to 95° C., cooled to room temperature, not reproducible)","conversion of polymorph B into form A (XRPD) ([4]; 3-3: n-heptane, 110° C., reflux 5 hrs 18 min, cooled, stirred 16 hrs)","conversion of polymorph B into form A (XRPD) ([4]; 3-4: n-heptane, 108° C., seed crystals of polymorph A added, cooled to room temperature)",polymorph conversion in the melt (diffractometry) ([5]; depending on duration of the melting status),polymorph conversion on vacuum sublimation ([5]; vacuum sublimation at 1-2 kPa),polymorph conversion in supercritical CO2 [6]
"Cn1c2ccc(F)cc2c2ccncc21 [polymorph A, 6-fluoro-9-methyl-9H-β-carboline]",60,100,10-18 dBs,10-18 dBs,14.6,7.7,unstable,–,–,–,–,–,–,–,–,–,–,–,–,–
"Cn1c2ccc(F)cc2c2ccncc21 [polymorph B, 6-fluoro-9-methyl-9H-β-carboline]",–,–,–,–,–,–,stable,no conversion,no polymorph conversion,0,23-39 dBs,0.6,34.1,did not reveal conversion into form A,some presence of polymorph A,unchanged polymorph B,unchanged polymorph B,up to a complete conversion,complete conversion into white crystals of polymorph A,polymorph A is obtained; also recorded: transformation happened of polymorph B into polymorph A
